Assay results: patent US12263248B2, “Compounds and compositions for intracellular delivery of therapeutic agents” (ModernaTX, Inc., priority 2018, dated 2025)
Marks after values point to notes of the source that are not given here.

What was measured:
[1] = Particle size and polydispersity index of nanoparticle compositions (Zetasizer Nano ZS); format: physicochemical
Method in brief: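 Measured in 1×PBS by Zetasizer Nano ZS.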

luciferase (Luc) mRNA = assay: Luc expression in liver, lung, spleen and femur 6 hours after intravenous administration; format: in vivo; conditions: mice, 0.5 mpk; for Total Flux Liver / Total Flux Lung / Total Flux Spleen / Total Flux Femur: intravenous
Method in brief: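 LNP-formulated mRNA given IV to mice (n=3) at 0.5 mpk; at 6 h, bioluminescence imaged ex vivo 15 min after IP D-luciferin (15 mg/mL, 200 μL), organs imaged within 25 min. Values are total flux by region of interest.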

IL-6, IP-10 = assay: Cytokine induction in mice upon intravenous administration; format: in vivo; parameters: Cytokine induction IL-6 / Cytokine induction IP-10: unit not given here; conditions: 0.5 mpk, 6 hours; for Cytokine induction IL-6 / Cytokine induction IP-10: intravenous
Method in brief: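 IL-6 and IP-10 concentrations determined 6 hours after a single intravenous 0.5 mpk dose of lipid nanoparticle formulation in mice, with MC3 and PBS as comparators.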

luciferase mRNA = assay: Luciferase expression after subcutaneous administration to mice; format: in vivo, female CD-1 mice; conditions: for Novel lipid/MC3 expression ratio, 6 hr. time point, s.c. Luc 0.05 mpk / Novel lipid/MC3 expression ratio, 6 hr. time point, s.c. Luc 0.5 mpk / Novel lipid/MC3 expression ratio, s.c. Luc 0.5 mpk (AUC): relative to MC3; for Novel lipid/MC3 expression ratio, 6 hr. time point, s.c. Luc 0.5 mpk / Novel lipid/MC3 expression ratio, s.c. Luc 0.5 mpk (AUC) / Lipid/MC3 AUC ratio / AUC (luciferase expression): 0.5 mpk; for Lipid/MC3 AUC ratio: luciferase; for AUC (luciferase expression): whole body BLI; for Novel lipid/MC3 ratio, s.c. Luc 6 hr.: relative to MC3, Table 3G
Method: The effect of the lipids of the disclosure on protein expression upon subcutaneous administration was studied. Formulations containing lipids of the disclosure and an mRNA expressing luciferase or hEPO were administered subcutaneously to female CD-1 mice at 0.5 mpk. Expression levels were obtained via whole body luminescent imaging (BLI) at 3, 6 and 24 hours after injection and expression levels in liver, spleen and at the injection site were evaluated ex vivo after 24 hours. […] See also Tables 35 and 36, and FIGS. 19 and 27.
Table 35 summarizes the luciferase expression levels using various nanoparticle compositions of the disclosure, and the luciferase expression levels using various nanoparticle compositions of the disclosure as compared to the luciferase expression level using an MC3 formulation after subcutaneous administration, as described above.

[2] = Table 1A, lipid:DSPC:cholesterol:PEG-DMG 50:10:38.5:1.5 mol %
[3] = Table 1E, compositions for subcutaneous administration
[4] = Table 1C, compositions for subcutaneous administration

SMILES | PDI ([1]; Table 1A) | Size (nm) [1, 2] | Total Flux Liver (luciferase (Luc) mRNA) | Total Flux Lung (luciferase (Luc) mRNA) | Total Flux Spleen (luciferase (Luc) mRNA) | Cytokine induction IL-6 (IL-6, IP-10) | Cytokine induction IP-10 (IL-6, IP-10) | Novel lipid/MC3 expression ratio, 6 hr. time point, s.c. Luc 0.5 mpk (luciferase mRNA) | Total Flux Femur (luciferase (Luc) mRNA) | further results
CCCCCCCCCN(CCCO)CCCCCCCC(=O)OC(CCCCCCCC)CCCCCCCC [Compound 7, Heptadecan-9-yl 8-((3-hydroxypropyl)(nonyl)amino)octanoate] | 0.22 | 118.9 nm | 2.49E+09 | 3.95E+07 | 4.83E+08 | 116.35 | 4959.16 | 2.29 | – | Flux in the spleen (luciferase (Luc) mRNA; i.v., in words): highest; IP-10 induction (IL-6, IP-10; i.v., in words): highest; Novel lipid/MC3 expression ratio, 6 hr. time point, s.c. Luc 0.05 mpk (luciferase mRNA): 2.40
CCCCCCCCCOC(=O)CCCCCCCN(CCCO)CCCCCCCC(=O)OC(CCCCCCCC)CCCCCCCC [Compound 19, Heptadecan-9-yl 8-((3-hydroxypropyl)(8-(nonyloxy)-8-oxooctyl)amino) octanoate] | 0.17 | 101.1 nm | 6.33E+08 | 5.99E+06 | 1.77E+07 | 285.56 | 1468.94 | 2.13 | 1.68E+06 | PDI [1, 3]: 0.13; Size (nm) [1, 3]: 80.7 nm; IL-6 induction (IL-6, IP-10; i.v., in words): highest
CCCCCCCCCOC(=O)CCCCCCCN(CCCCO)CCCCCCCC(=O)OC(CCCCCCCC)CCCCCCCC [Compound 20, Heptadecan-9-yl 8-((4-hydroxybutyl)(8-(nonyloxy)-8-oxooctyl)amino) octanoate] | 0.13 | 86.7 nm | 1.84E+09 | 2.66E+07 | 1.43E+08 | 126.83 | 2468.24 | – | 1.31E+07 | PDI [1, 4]: 0.13; Size (nm) [1, 4]: 86.7 nm; IP-10 induction (IL-6, IP-10; i.v., in words): highest; Novel lipid/MC3 expression ratio, s.c. Luc 0.5 mpk (AUC) (luciferase mRNA): (AUC: 4.02); Lipid/MC3 AUC ratio (luciferase mRNA): 4.02; AUC (luciferase expression) (luciferase mRNA): 6.8926E+10 (p/s) * h; Novel lipid/MC3 ratio, s.c. Luc 6 hr. (luciferase mRNA): 4.00
CCCCCCCCCOC(=O)CCCCCCCN(CCO)CCCCCCCCCC(=O)OC(CCCCCCCC)CCCCCCCC [Compound 23, Heptadecan-9-yl 10-((2-hydroxyethyl)(8-(nonyloxy)-8-oxooctyl)amino) decanoate] | 0.09 | 104.5 nm | 2.92E+08 | 1.82E+06 | 3.08E+07 | 94.00 | 1015.95 | 1.02 | 1.19E+06 | PDI [1, 3]: 0.13; Size (nm) [1, 3]: 70.5 nm
CCCCCCCCCOC(=O)CCCCCCCN(CCO)CCCCCC(=O)OC(CCCCCCCC)CCCCCCCC [Compound 27, Nonyl 8-((6-(heptadecan-9-yloxy)-6-oxohexyl)(2-hydroxyethyl)amino) octanoate] | 0.18 | 82.3 nm | 2.16E+09 | 6.35E+06 | 3.78E+06 | 161.07 | 345.56 | – | 2.00E+06 | Novel lipid/MC3 expression ratio, 6 hr. time point, s.c. Luc 0.05 mpk (luciferase mRNA): 14.45
CCCC/C=C\CCC(CC/C=C\CCCC)OC(=O)CCCCCCCN(CCO)CCCCCC(=O)OCCCCCCCCCCC [Compound 61, (5Z,12Z)-heptadeca-5,12-dien-9-yl 8-((2-hydroxyethyl)(6-oxo-6-(undecyloxy)hexyl)amino)octanoate] | 0.15 | 82.1 nm | 6.37E+08 | 3.56E+06 | 1.61E+07 | – | – | 0.70 | – | PDI [1, 3]: 0.08; Size (nm) [1, 3]: 80.0 nm
CCCCCCCCC(CC)OC(=O)CCCN(CCO)CCCCCCCC(=O)OC(CCCCCCCC)CCCCCCCC (stereo not shown) [Compound 72, Heptadecan-9-yl 8-((2-hydroxyethyl)(4-oxo-4-(undecan-3-yloxy)butyl)amino)octanoate] | 0.10 | 76.8 nm | 7.97E+08 | 1.05E+07 | 6.40E+06 | – | – | – | – | PDI [1, 4]: 0.10; Size (nm) [1, 4]: 77.3 nm; Novel lipid/MC3 expression ratio, s.c. Luc 0.5 mpk (AUC) (luciferase mRNA): (AUC: 2.01); Lipid/MC3 AUC ratio (luciferase mRNA): 2.01; AUC (luciferase expression) (luciferase mRNA): 3.4417E+10 (p/s) * h; Novel lipid/MC3 ratio, s.c. Luc 6 hr. (luciferase mRNA): 2.18
CCCCCCCCC(CC)OC(=O)CCCCCN(CCO)CCCCCCCC(=O)OC(CCCCCCCC)CCCCCCCC (stereo not shown) [Compound 75, Heptadecan-9-yl 8-((2-hydroxyethyl)(6-oxo-6-(undecan-3-yloxy)hexyl)amino)octanoate] | 0.17 | 92.1 nm | 1.45E+09 | 3.92E+06 | 5.66E+06 | – | – | – | – | PDI [1, 4]: 0.13; Size (nm) [1, 4]: 88.6 nm; Novel lipid/MC3 expression ratio, s.c. Luc 0.5 mpk (AUC) (luciferase mRNA): (AUC: 3.05); Lipid/MC3 AUC ratio (luciferase mRNA): 3.05; AUC (luciferase expression) (luciferase mRNA): 5.2262E+10 (p/s) * h; Novel lipid/MC3 ratio, s.c. Luc 6 hr. (luciferase mRNA): 3.08
CCCCCCCCCOC(=O)CCCCCCCN(CCCCCCCC(=O)OC(CCCCCCCC)CCCCCCCC)CCCNC(=S)NC [Compound 113, Heptadecan-9-yl 8-((3-(3-methylthioureido)propyl)(8-(nonyloxy)-8-oxooctyl)amino)octanoate] | 0.13 | 86.8 nm | 1.11E+09 | 5.55E+06 | 5.22E+07 | – | – | – | – | PDI [1, 4]: 0.14; Size (nm) [1, 4]: 83.9 nm; Novel lipid/MC3 expression ratio, s.c. Luc 0.5 mpk (AUC) (luciferase mRNA): (AUC: 4.30); Lipid/MC3 AUC ratio (luciferase mRNA): 4.30; AUC (luciferase expression) (luciferase mRNA): 7.3721E+10 (p/s) * h; Novel lipid/MC3 ratio, s.c. Luc 6 hr. (luciferase mRNA): 4.53
CCCCCCCCC(CCCCCCCC)OC(=O)CCCCCCCN(CCO)CCCCCC(=O)OC(CCCCCCCC)C1CC1 (stereo not shown) [Compound 128, Heptadecan-9-yl 8-((6-((1-cyclopropylnonyl)oxy)-6-oxohexyl)(2-hydroxyethyl)amino)octanoate] | 0.22 | 104.1 nm | 5.98E+09 | 2.16E+07 | 7.09E+07 | – | – | 0.47 | – | PDI [1, 3]: 0.13; Size (nm) [1, 3]: 73.9 nm
CCCCCCCCCOC(=O)CCCCCCCN(CCO)CCCCCCCC(=O)OCCCCCCCCC [Compound 138, Dinonyl 8,8′-((2-hydroxyethyl)azanediyl)dioctanoate] | <0.5 | 179.4 nm | 3.66E+06 | 9.47E+04 | 4.04E+06 | 23.38 | 172.56 | – | 1.58E+05 | PDI (Polydispersity index) ([1]; lipid nanoparticle, ±SD within one assay run (Table 37)): 0.14 ± 0.05
CCCCCCCC/C=C\COC(=O)CCCCCN(CCO)CCCCCC(=O)OC/C=C\CCCCCCCC [Compound 140, Di((Z)-undec-2-en-1-yl) 6,6′-((2-hydroxyethyl)azanediyl)dihexanoate] | 0.84 | 120.3 nm | 4.21E+05 | 2.14E+04 | 2.22E+05 | 282.82 | 187.83 | – | 3.26E+04 | –
CCCCCCCCCOC(=O)CCCCCCCN(CCO)CCCCCCC(=O)OCC(CCCCCCCC)CCCCCCCC [Compound 143, Nonyl 8-((2-hydroxyethyl)(7-((2-octyldecyl)oxy)-7-oxoheptyl)amino)octanoate] | 0.21 | 98.8 nm | 1.76E+09 | 3.60E+07 | 1.42E+08 | 6.245 | 209.63 | – | – | –
CCCCCCCCCOC(=O)CCCCCCCN(CCO)CCCCCCCC(=O)N(CCCCCCCC)CCCCCCCC [Compound 144, Nonyl 8-((8-(dioctylamino)-8-oxooctyl)(2-hydroxyethyl)amino)octanoate] | 0.22 | 135.9 nm | 3.75E+08 | 4.81E+06 | 5.11E+07 | 319.46 | 4220.55 | – | 2.44E+06 | –
